US8846845B2, “Bioabsorbable and biocompatible polyurethanes and polyamides for medical devices” (Bezwada Biomedical, LLC, priority 2005, dated 2014)

Assay: In vitro hydrolysis of functionalized phenolics in pH 7.4 buffer at reflux, monitored by TLC
Assay type: physicochemical
Details: reflux temp. (100° C.); 500 mg compound in 50 ml pH 7.4 buffer solution; TLC against original phenolic as control
Experimental: Selected compounds were examined for the rate of hydrolysis by conducting in vitro hydrolysis studies at reflux temp. (100° C.). For each experiment, 500 mg of a func-tionalized compound and 50 ml of pH 7.4 buffer solution (purchased from Aldrich Chemical) were charged into a 100 ml round bottom flask fitted with a condenser and the contents were refluxed. In vitro hydrolysis of the functionalized phenolics was monitored by thin layer chromatography (TLC) using corresponding starting material (original phenolic) as a control. In vitro hydrolysis was continued at reflux until the functionalized molecule hydrolyzed to the starting phenolic compound.

Structure (SMILES): COC(=O)COC(=O)COc1ccc(N)cc1 [Example 45, (4-Aminophenoxy)-acetic acid methoxycarbonylmethyl ester]
- time in which the functionalized compound was hydrolyzed to the starting phenolic compound: 3 h

Structure (SMILES): CC(Oc1ccc(N)cc1)C(=O)OCCOC(=O)C(C)Oc1ccc(N)cc1 (stereo not shown) [Example 32, 2-(4-Aminophenoxy)-propionic acid 2-[2-(4-aminophenoxy)-propionyloxy]-ethyl ester]
- time in which the functionalized compound was hydrolyzed to the starting phenolic compound: 40 h

Structure (SMILES): Nc1ccc(OCC(=O)OCCOC(=O)COc2ccc(N)cc2)cc1 [Example 25, (4-Amino-phenoxy)-acetic acid-2-[2-(4-amino-phenoxy)-acetoxy]-ethyl ester]
- time in which the functionalized compound was hydrolyzed to the starting phenolic compound: 11.5 h

Structure (SMILES): COC(=O)COC(=O)COc1ccc(NC(C)=O)cc1 [Example 48, (4-Acetylaminophenoxy)acetic acid methoxycarbonyl methyl ester]
- time in which the functionalized compound was hydrolyzed to the starting phenolic compound: 8 h
